In patent US20240360178A1, “MACROCYCLIC IMMUNOMODULATORS” (Bristol-Myers Squibb Company, priority 2021, published 2024):
Positions of bridges follow the written chain, without caps; N, C: chain ends. Non-standard residues stand in square brackets, D forms with d. Residues, ends and D or L forms follow the SMILES beside them. ξ: configuration not given here. *: point of attachment. Bip = N[C@@H](Cc1ccc(-c2ccccc2)cc1)C(=O)O; Phe(3-Me) = Cc1cccc(C[C@H](N)C(=O)O)c1; NMeF = CN[C@@H](Cc1ccccc1)C(=O)O; 4Pal = N[C@@H](Cc1ccncc1)C(=O)O; dHyp = O=C(O)[C@H]1C[C@H](O)CN1; Cha = N[C@@H](CC1CCCCC1)C(=O)O; Thr(3ξ) = CC(O)[C@H](N)C(=O)O; Carboxymethyl = O=C(O)C*; NMeA = CN[C@@H](C)C(=O)O; Orn = NCCC[C@H](N)C(=O)O; Dab = NCC[C@H](N)C(=O)O; NBuGly = CCCCNCC(=O)O; ξV = CC(C)C(N)C(=O)O; Sar = CNCC(=O)O

Target: T1, human PD-1 (Jurkat-PD-1 cells) / PE-labeled human PD-L1-Ig (Homo sapiens, UniProt Q15116)
T1 construct: expressed in transfected cells; host or cells: Jurkat cell line over-expressing human PD-1
Test: Jurkat-PD-1 Cell Binding High-Content Screening Assay (CBA); Jurkat hPD1-PDL1 assay
Details: Jurkat cell line over-expressing human PD-1; PE-labeled PD-L1-Ig 20 nM final; compound incubated 2 hours at 37° C.; read-out: Jurkat HPD1-PDL1 IC50
Procedure, shortened: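 Jurkat-hPD-1 cells; cpd 2 h, 37° C; then PE-PD-L1-Ig 20 nM final in DMEM/10% FCS; high-content imaging read-out.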

T1 sequence (Q15116 25-288): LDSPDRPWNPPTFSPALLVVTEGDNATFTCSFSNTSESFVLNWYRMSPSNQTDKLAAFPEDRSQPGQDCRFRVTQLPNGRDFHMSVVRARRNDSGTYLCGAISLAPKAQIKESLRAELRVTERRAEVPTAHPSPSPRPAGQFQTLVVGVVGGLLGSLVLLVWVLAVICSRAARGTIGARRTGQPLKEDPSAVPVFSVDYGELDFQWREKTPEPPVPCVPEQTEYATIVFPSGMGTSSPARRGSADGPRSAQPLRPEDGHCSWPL

Compound | IC50 [nM]
CC(C)C[C@@H]1NC(=O)[C@H](Cc2c[nH]c3ccccc23)NC(=O)[C@H](CC(=O)O)NC(=O)[C@H](Cc2ccc(O)cc2)NC(=O)[C@H](CC(N)=O)NC(=O)CSC[C@@H](C(=O)NCC(N)=O)NC(=O)[C@H](CO)NC(=O)[C@H](C(C)C)NC(=O)[C@H](CC(C)C)NC(=O)[C@H](CC(N)=O)NC(=O)CN(C)C(=O)[C@H](C)N(C)C(=O)[C@H](C(C)C)NC(=O)[C@H](Cc2ccc(-c3ccccc3)cc2)NC1=O [Example 1140] ({CH2CO}-NYDWL[Bip]V[NMeA][Sar]NLVSCG-NH2; thioether N-14) | 600
CC(C)C[C@@H]1NC(=O)[C@H](CCCNC(=N)N)NC(=O)[C@H](Cc2ccccc2)N(C)C(=O)[C@H](CCN)NC(=O)[C@H](CCCNC(=N)N)NC(=O)[C@H](Cc2ccc(-c3ccccc3)cc2)NC(=O)[C@H](C(C)C)NC(=O)[C@H](Cc2c[nH]c3ccccc23)NC(=O)[C@H](CC(=O)O)NC(=O)[C@H](Cc2ccc(O)cc2)NC(=O)[C@H](Cc2ccccc2)NC(=O)CSC[C@@H](C(=O)NCC(N)=O)NC(=O)[C@H](CO)NC(=O)[C@H](C(C)C)NC1=O [Example 1255] ({CH2CO}-FYDWV[Bip]R[Dab][NMeF]RLVSCG-NH2; thioether N-14) | 430
CC(C)C[C@@H]1NC(=O)[C@H](CCN)NC(=O)[C@H](Cc2ccccc2)N(C)C(=O)[C@H](C)N(C)C(=O)[C@H](CCCNC(=N)N)NC(=O)[C@H](Cc2ccc(-c3ccccc3)cc2)NC(=O)[C@H](C(C)C)NC(=O)[C@H](Cc2c[nH]c3ccccc23)NC(=O)[C@H](CC(=O)O)NC(=O)[C@H](Cc2ccc(O)cc2)NC(=O)[C@H](CC(N)=O)NC(=O)CSC[C@@H](C(=O)N[C@@H](C)C(N)=O)NC(=O)[C@H](CO)NC(=O)[C@H](C(C)C)NC1=O [Example 1303] ({CH2CO}-NYDWV[Bip]R[NMeA][NMeF][Dab]LVSCA-NH2; thioether N-14) | 70
CC(C)C[C@@H]1NC(=O)[C@H](Cc2c[nH]c3ccccc23)NC(=O)[C@H](CC(=O)O)NC(=O)[C@H](Cc2ccc(O)cc2)NC(=O)[C@H](CC(N)=O)NC(=O)CSC[C@@H](C(=O)NCC(N)=O)NC(=O)[C@H](CO)NC(=O)[C@H](C(C)C)NC(=O)[C@H](CC(C)C)NC(=O)[C@H](CCN)NC(=O)[C@H]2CCCN2C(=O)[C@H](CCCN)NC(=O)[C@H](C(C)C)NC(=O)[C@H](Cc2ccc(-c3ccccc3)cc2)NC1=O [Example 1403] ({CH2CO}-NYDWL[Bip]V[Orn][dP][Dab]LVSCG-NH2; thioether N-14) | 70
CC(C)C[C@@H]1NC(=O)[C@H](Cc2c[nH]c3ccccc23)NC(=O)[C@H](CC(=O)O)NC(=O)[C@H](Cc2ccc(O)cc2)NC(=O)[C@H](Cc2ccccc2)NC(=O)CSC[C@@H](C(=O)N[C@@H](C)C(N)=O)NC(=O)[C@H](CO)NC(=O)[C@H](C(C)C)NC(=O)[C@H](CC(C)C)NC(=O)[C@H](CC(N)=O)NC(=O)[C@H]2C[C@H](O)CN2C(=O)[C@H](C)N(C)C(=O)[C@H](C(C)C)NC(=O)[C@H](Cc2ccc(-c3ccccc3)cc2)NC1=O [Example 1054] ({CH2CO}-FYDWL[Bip]V[NMeA][dHyp]NLVSCA-NH2; thioether N-14) | 120
COc1ccc(C[C@@H]2NC(=O)[C@H](Cc3ccccc3)NC(=O)CSC[C@@H](C(=O)N[C@@H](C)C(N)=O)NC(=O)[C@H](CO)NC(=O)[C@H](C(C)C)NC(=O)[C@H](CC(C)C)NC(=O)[C@H](CC(N)=O)NC(=O)CN(C)C(=O)[C@H](C)N(C)C(=O)[C@H](C(C)C)NC(=O)[C@H](Cc3ccc(-c4ccccc4)cc3)NC(=O)[C@H](CC(C)C)NC(=O)[C@H](Cc3c[nH]c4ccccc34)NC(=O)[C@H](CC(=O)O)NC2=O)cc1 [Example 1139] ({CH2CO}-FY(Me)DWL[Bip]V[NMeA][Sar]NLVSCA-NH2; thioether N-14) | 590
CC(C)C[C@@H]1NC(=O)[C@H](Cc2c[nH]c3ccccc23)NC(=O)[C@H](CC(=O)O)NC(=O)[C@H](Cc2ccc(O)cc2)NC(=O)[C@H](Cc2ccccc2)NC(=O)CSC[C@@H](C(=O)NCC(N)=O)NC(=O)[C@H](CCCNC(=N)N)NC(=O)[C@H](C(C)C)NC(=O)[C@H](CC(C)C)NC(=O)[C@H](CC(N)=O)NC(=O)CN(C)C(=O)[C@H](C)N(C)C(=O)[C@H](C(C)C)NC(=O)[C@H](Cc2ccc(-c3ccccc3)cc2)NC1=O [Example 1226] ({CH2CO}-FYDWL[Bip]V[NMeA][Sar]NLVRCG-NH2; thioether N-14) | 890
CC(C)C[C@@H]1NC(=O)[C@H](Cc2c[nH]c3ccccc23)NC(=O)[C@H](CC(=O)O)NC(=O)[C@H](Cc2ccc(O)cc2)NC(=O)[C@H](Cc2ccccc2)NC(=O)CSC[C@@H](C(=O)N[C@@H](C)C(N)=O)NC(=O)[C@H](CO)NC(=O)[C@H](C(C)C)NC(=O)[C@H](CC(C)C)NC(=O)[C@H](CC(N)=O)NC(=O)CN(C)C(=O)[C@H]2C[C@H](O)CN2C(=O)C(C(C)C)NC(=O)[C@H](Cc2ccc(-c3ccccc3)cc2)NC1=O (stereo partly shown) [Example 1003] ({CH2CO}-FYDWL[Bip][ξV][dHyp][Sar]NLVSCA-NH2; thioether N-14) | 760
CCCCN1CC(=O)N[C@@H](CCN)C(=O)N[C@@H](CC2CCCCC2)C(=O)N[C@@H](C(C)C)C(=O)N[C@@H](CO)C(=O)N[C@H](C(=O)N[C@@H](CCN)C(N)=O)CSCC(=O)N[C@@H](Cc2ccncc2)C(=O)N[C@@H](Cc2ccc(OCC(=O)O)cc2)C(=O)N[C@@H](CC(=O)O)C(=O)N[C@@H](Cc2cccc(C)c2)C(=O)N[C@@H](Cc2ccc(OCC(=O)O)cc2)C(=O)N[C@@H](Cc2ccc(-c3ccccc3)cc2)C(=O)N[C@@H](Cc2ccc(OCC(=O)O)cc2)C(=O)N(C)[C@@H](C)C1=O [Example 1187] ({CH2CO}-[4Pal]Y(Carboxymethyl)D[Phe(3-Me)]Y(Carboxymethyl)[Bip]Y(Carboxymethyl)[NMeA][NBuGly][Dab][Cha]VSC[Dab]-NH2; thioether N-14) | 290
CC(C)C[C@@H]1NC(=O)[C@H](CCCNC(=N)N)NC(=O)[C@H](Cc2ccccc2)N(C)C(=O)[C@H](C)N(C)C(=O)[C@H](CCCNC(=N)N)NC(=O)[C@H](Cc2ccc(-c3ccccc3)cc2)NC(=O)[C@H](C(C)C)NC(=O)[C@H](Cc2c[nH]c3ccccc23)NC(=O)[C@H](CC(=O)O)NC(=O)[C@H](Cc2ccc(O)cc2)NC(=O)[C@H](CO)NC(=O)CSC[C@@H](C(=O)NCC(N)=O)NC(=O)[C@H](CO)NC(=O)[C@H](C(C)C)NC1=O [Example 1062] ({CH2CO}-SYDWV[Bip]R[NMeA][NMeF]RLVSCG-NH2; thioether N-14) | 160
CC(C)C[C@@H]1NC(=O)[C@H](CCCNC(=N)N)NC(=O)[C@H](Cc2ccccc2)N(C)C(=O)[C@H](C)N(C)C(=O)[C@H](CCCNC(=N)N)NC(=O)[C@H](Cc2ccc(-c3ccccc3)cc2)NC(=O)[C@H](C(C)C)NC(=O)[C@H](Cc2c[nH]c3ccccc23)NC(=O)[C@H](CC(=O)O)NC(=O)[C@H](Cc2ccc(O)cc2)NC(=O)[C@H](Cc2ccccc2)NC(=O)CSC[C@@H](C(=O)N[C@H](C(N)=O)C(C)O)NC(=O)[C@H](CO)NC(=O)[C@H](C(C)C)NC1=O (stereo partly shown) [Example 1063] ({CH2CO}-FYDWV[Bip]R[NMeA][NMeF]RLVSC[Thr(3ξ)]-NH2; thioether N-14) | 160
COc1ccc(C[C@@H]2NC(=O)CSC[C@@H](C(=O)NCC(N)=O)NC(=O)[C@H](CO)NC(=O)[C@H](C(C)C)NC(=O)[C@H](CC(C)C)NC(=O)[C@H](CCCNC(=N)N)NC(=O)[C@H](Cc3ccccc3)N(C)C(=O)[C@H](C)N(C)C(=O)[C@H](CCCNC(=N)N)NC(=O)[C@H](Cc3ccc(-c4ccccc4)cc3)NC(=O)[C@H](C(C)C)NC(=O)[C@H](Cc3c[nH]c4ccccc34)NC(=O)[C@H](CC(=O)O)NC(=O)[C@H](Cc3ccc(O)cc3)NC2=O)cc1 [Example 1247] ({CH2CO}-Y(Me)YDWV[Bip]R[NMeA][NMeF]RLVSCG-NH2; thioether N-14) | 230
CC(C)C[C@@H]1NC(=O)[C@H](Cc2c[nH]c3ccccc23)NC(=O)[C@H](CC(=O)O)NC(=O)[C@H](Cc2ccc(O)cc2)NC(=O)[C@H](CC(N)=O)NC(=O)CSC[C@@H](C(=O)N[C@@H](C)C(N)=O)NC(=O)[C@H](CO)NC(=O)[C@H](C(C)C)NC(=O)[C@H](CC(C)C)NC(=O)[C@H](CC(N)=O)NC(=O)[C@H]2CCCN2C(=O)[C@H](C)N(C)C(=O)[C@H](C(C)C)NC(=O)[C@H](Cc2ccc(-c3ccccc3)cc2)NC1=O [Example 1031] ({CH2CO}-NYDWL[Bip]V[NMeA][dP]NLVSCA-NH2; thioether N-14) | 60
CC(C)C[C@@H]1NC(=O)[C@H](CCCNC(=N)N)NC(=O)[C@H](Cc2ccccc2)N(C)C(=O)[C@H](C)N(C)C(=O)[C@H](CCCNC(=N)N)NC(=O)[C@H](Cc2ccc(-c3ccccc3)cc2)NC(=O)[C@H](C(C)C)NC(=O)[C@H](Cc2c[nH]c3ccccc23)NC(=O)[C@H](CC(=O)O)NC(=O)[C@H](Cc2ccc(O)cc2)NC(=O)[C@H](Cc2ccccc2)NC(=O)CSC[C@@H](C(=O)N[C@@H](C)C(N)=O)NC(=O)[C@H]([C@@H](C)O)NC(=O)[C@H](C(C)C)NC1=O [Example 1358] ({CH2CO}-FYDWV[Bip]R[NMeA][NMeF]RLVTCA-NH2; thioether N-14) | 400
CC(C)C[C@@H]1NC(=O)[C@H](Cc2c[nH]c3ccccc23)NC(=O)[C@H](CC(=O)O)NC(=O)[C@H](Cc2ccc(O)cc2)NC(=O)[C@H](Cc2ccccc2)NC(=O)CSC[C@@H](C(=O)N[C@@H](C)C(N)=O)NC(=O)[C@H](CO)NC(=O)[C@H](C(C)C)NC(=O)[C@H](CC(C)C)NC(=O)[C@H](CCCCN)NC(=O)CN(C)C(=O)[C@H](C)N(C)C(=O)[C@H](CCC(=O)O)NC(=O)[C@H](Cc2ccc(-c3ccccc3)cc2)NC1=O [Example 1134] ({CH2CO}-FYDWL[Bip]E[NMeA][Sar]KLVSCA-NH2; thioether N-14) | 540
CC(C)C[C@@H]1NC(=O)CSC[C@@H](C(=O)N[C@@H](C)C(N)=O)NC(=O)[C@H]([C@@H](C)O)NC(=O)[C@H](C(C)C)NC(=O)[C@H](CC(C)C)NC(=O)[C@H](CCCNC(=N)N)NC(=O)[C@H](Cc2ccccc2)N(C)C(=O)[C@H](C)N(C)C(=O)[C@H](CCCNC(=N)N)NC(=O)[C@H](Cc2ccc(-c3ccccc3)cc2)NC(=O)[C@H](C(C)C)NC(=O)[C@H](Cc2c[nH]c3ccccc23)NC(=O)[C@H](CC(=O)O)NC(=O)[C@H](Cc2ccc(O)cc2)NC1=O [Example 1319] ({CH2CO}-LYDWV[Bip]R[NMeA][NMeF]RLVTCA-NH2; thioether N-14) | 130
